Source: EP0103895A2, “Novel hydroxylamine derivatives, production and use thereof” (MEIJI SEIKA KABUSHIKI KAISHA, priority 1982, dated 1984)
Values joined by “and” are separate entries in the source; they are usually repeats but may differ in a detail not shown here. Identical values can stand only once. Like-named read-outs stand apart in the source and are kept apart here.

Assays:
[1] = system: swine whipworm (Trichuris suis); assay: Test of anthelmintic effect in naturally infected pigs, E.P.G. on 7th day: swine whipworm (Test Examples A9, B9, C9, D9); type: in vivo
Procedure: (§1) Six pigs infected with swine roundworm and swine whipworm (naturally infected pigs) were employed in groups each of two pigs.
(§2) As a control, only gelatin capsules were administered orally to the two pigs.
(§3) Before administration and on the 7th day after. administration, fecal matter testing was conducted to calculate the E.P.G., and the anthelmintic effect was judged by the changing of the E.P.G. to negative'.
(§4) 50 mg of each compound was placed in a gelatin capsule per 1 Kg of body weight and administered orally to each of the two pigs. As control, only gelatin capsules were administered orally to two pigs.
(§5) 30 mg of each compound was placed in a gelatin capsule per 1 Kg of body weight and administered orally to each of the two pigs. As control, only gelatin capsules were administered orally to two pigs.

[2] = system: fowl roundworm (Ascaridia galli); assay: Anthelmintic test in chickens artificially infected with fowl roundworm, single oral dose in gelatin capsule, worm bodies counted within 48 hours (Test Examples A1, B1, C1, D1); type: in vivo; settings: Ascaridia galli, po, 48 h, read-out: Anthelmintic effect after 48 hours
In short: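 Groups of three chickens with confirmed Ascaridia galli infection given a single oral dose in gelatin capsule (10 and 20 mg/kg in A1 and B1; 30 and 50 mg/kg in C1; 15 and 30 mg/kg in D1). Worms expelled over 48 h and those remaining in the gut at necropsy counted to give anthelmintic percentage.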

[3] = system: Diphyllobothrium erinacei; assay: Test of anthelmintic effect against Diphyllobothrium erinacei (tapeworm) in experimentally infected cats (Test Examples A5, B5, C5, D5)
[4] = system: fowl roundworm (As. galli); assay: Anthelmintic test in chickens artificially infected with fowl roundworm, compound added to feed, E.P.G. and worm count up to 21st day (Test Examples A2, B2, C2, D2); type: in vivo, Ascaridia galli
[5] = system: Liver fluke; Fasciola hepatica (F. hepatica); assay: Test of anthelmintic effect against rat infected experimentally with liver fluke (Test Examples A11, B11, C11, D11); type: in vivo; settings: for anthelmintic effect: rats, five administrations in a dose of 50 mg/Kg each
[6] = system: swine roundworm (Ascaris suum); assay: Test of anthelmintic effect in naturally infected pigs, E.P.G. on 7th day: swine roundworm (Test Examples A9, B9, C9, D9); type: in vivo
Procedure: as §1, §2, §3, §4, §5

[7] = system: canine roundworm (Toxocara canis); assay: Anthelmintic test in naturally infected dogs with mixed infections, E.P.G. on 7th day: canine roundworm (Test Examples A3, B3, C3, D3); type: in vivo; settings: dog; for Change of E.P.G. 7th day: one administration
Procedure: (§6) Three dogs with mixed infections by canine whipworm (Trichuris vulpis), canine hookworm (Ancylostoma caninum) and canine roundworm (Toxocara canis) (naturally infected dogs) were employed in a group of two and a group of one.
(§7) The compound provided for the test was Compound No.Al, and 20 mg/Kg thereof was placed in a gelatin capsule per 1 Kg of body weight, and administered orally to the two dogs. As control, only a gelatin capsule was administered orally to the one dog.
(§8) Before administration and on the 7th day after administration, fecal matter testing was conducted to calculate the E.P.G., and the anthelmintic effect was judged by the changing of the E.P.G. to negative.
(§9) As control, only gelatin capsules were administered orally to the one dog.
(§10) The same method as in Test Example A3, but the compound provided for the test was Compound No. Cl. 30 mg/Kg of this compound was placed in a gelatin capsule per 1 Kg of body weight and administered orally to the two dogs. As control, only gelatin capsules were administered orally to the one dog.

[8] = system: canine whipworm (Trichuris vulpis); assay: Anthelmintic test in naturally infected dogs with mixed infections, E.P.G. on 7th day: canine whipworm (Test Examples A3, B3, C3, D3); type: in vivo; settings: for Change of E.P.G. 7th day: one administration; for anthelmintic effect: dogs with mixed infections (Trichuris vulpis, Ancylostoma caninum, Toxocara canis; statement covers all three)
Procedure: as §6, §7, §8, §9, §10

[9] = system: canine filaria; Dirofilaria immitis; assay: Test of anthelmintic effect against canine filaria in naturally infected dogs, subcutaneous injection, microfilaria in blood and adult filaria at autopsy (Test Examples A10, B10, C10, D10); type: in vivo; settings: for inhibition in vivo at 30 mg/kg: Dirofilaria immitis, sc, 240 h
[10] = system: stomach worm (Haemonchus controtus); assay: Anthelmintic test against cow stomach worm in naturally infected cows, E.P.G. on 7th day (Test Examples A6, B6, C6, D6); type: in vivo; settings: for Change of E.P.G. 7th day / Change of E.P.G. Before administration: cow, Haemonchus controtus; for Change of E.P.G. 7th day: one administration; for anthelmintic effect: cows
Procedure: Three cows infected with stomach worm (naturally infected cows) were employed by grouping them into a group of two and a group of one.
(§11) As control, only gelatin capsules were administered orally to the one cow.
as §8, §11, §11

[11] = system: canine hookworm (Ancylostoma caninum); assay: Anthelmintic test in naturally infected dogs with mixed infections, E.P.G. on 7th day: canine hookworm (Test Examples A3, B3, C3, D3); type: in vivo; settings: dog; for Change of E.P.G. 7th day: one administration
Procedure: as §6, §7, §8, §9, §10

[12] = system: Trichostrongylidae (Trichostrongylus colubriformis); assay: Anthelmintic test against sheep Trichostrongylidae in naturally infected sheep, E.P.G. on 7th day (Test Examples A7, B7, C7, D7); type: in vivo
Procedure: Two sheep infected with Trichostrongylidae (naturally infected sheep) were employed.
The compound provided for the test was Compound No. Al, 15 mg of which was placed in a gelatin capsule per 1 Kg of body weight and administered orally to one of the sheep. As a control, only gelatin capsules were administered orally to the other sheep.
as §8
As control, only gelatin capsules were administered orally to the other sheep.
As control, only gelatin capsule was administered orally to the other sheep.

[13] = 30 mg/Kg oral in gelatin capsule
[14] = before 30 mg/Kg oral (baseline)
[15] = chicken, 30 mg/Kg oral in gelatin capsule, chickens No.1-3
[16] = Ascaridia galli, feed or water, 504 h, chicken, 25 ppm in feed, read-out: Anthelmintic effect
[17] = Ascaridia galli, feed or water, 504 h, chicken, 50 ppm in feed, read-out: Anthelmintic effect

In the case of `C=CCN(OCCCC)C(=O)c1ccccc1` [Compound B19, N-allyl-N-benzoyl-0-butylhydroxylamine], the “Change of E.P.G. 7th day” value ([1]; pigs, 50 mg/Kg orally once, one value per pig) is reported as 0 E.P.G, the inhibition in vivo at 30 mg/kg ([2]; chickens, 30 mg/Kg orally in gelatin capsule, one value per chicken (No.1-3)) is reported as 100% and the inhibition in vivo at 50 mg/kg ([2]; chickens, 50 mg/Kg orally in gelatin capsule, one value per chicken (No.1-3)) is reported as 100%. For the same molecule, the “Number of worm bodies remaining in enteron” value ([3]; cats infected with 5 plerocercoids, 50 mg/Kg x 5 times orally, autopsy ten days after administration, one value per cat) was 0, the “Worm egg detection on 10th day after administration” value ([3]; cats, 50 mg/Kg x 5 orally, one value per cat (Table B7)) was “-” and the “anthelmintic effect” value ([3]; cats, 5 continuous administrations of 50 mg/Kg) was “marked anthelmintic effects”. For the same molecule, the inhibition in vivo at 20 ppm ([4]; Ascaridia galli, po, 504 h, chickens, 20 ppm added to feed, worm count on 21st day, one value per chicken, read-out: Anthelmintic effect) was 80 to 90%, the inhibition in vivo at 50 ppm ([4]; Ascaridia galli, po, 504 h, chickens, 50 ppm added to feed, worm count on 21st day, one value per chicken, read-out: Anthelmintic effect) was 100% and the “Condition of fluke body” value ([5]; rat, 50 mg/Kg x 5) was “dead”. The “Presence or absence of fluke egg in fecal matter On 21st day after the last administration” value ([5]; rat, 50 mg/Kg x 5) was “-”, the “anthelmintic effect” value [5] was “marked antihelmintic effect” and the “anthelmintic effect” value ([6]; pigs infected with swine roundworm and swine whipworm (statement covers both), one administration of 50 mg/Kg) was “marked anthelmintic effect”. For the same molecule, the “Change of E.P.G. 7th day” value ([6]; pigs, 50 mg/Kg orally once, Ascaris suum, one value per pig) was 0 E.P.G.
`C=CCON(CC=C)C(C)=O` [Compound C1, N,O-diallyl-N-acetylhydroxyl- amine] was tested, and the “Change of E.P.G. 7th day” value [7, 13] was 0, the “Change of E.P.G. Before administration” value [7, 14] was 3,300 and 3,100 and the “Change of E.P.G. 7th day” value ([8]; dog, Trichuris vulpis, 30 mg/Kg oral in gelatin capsule) was 0. The “Change of E.P.G. Before administration” value ([8]; dog, Trichuris vulpis, before 30 mg/Kg oral (baseline)) was 2,300 and 4,200, the “anthelmintic effect” value ([8]; one administration of 30 mg/Kg) was “marked anthelmintic effect” and the inhibition in vivo at 30 mg/kg ([9]; dog, 30 mg/Kg x 3, subcutaneous injection, read-out: Effect on adult filaria: Percent of worms killed) was 86%. For the same molecule, the inhibition in vivo at 30 mg/kg ([9]; dogs, administration of 30 mg/Kg repeated three times, given as about 50% or more, read-out: anthelmintic effect against adult filaria) was at least 50%, the “Number of microfilaria/20 µl On 10th day after the last administration” value ([9]; dog, 30 mg/Kg x 3, subcutaneous injection, suspension in 1% Tween 80) was 0 /20 µl and the “Effect on adult filaria: Number of worms killed/ Total parasite” value ([9]; dog, 30 mg/Kg x 3, subcutaneous injection, 30 mg/kg) was 13/15 and 16/21. The “anthelmintic effect against microfilaria (mf)” value ([9]; dogs, administration of 30 mg/Kg repeated three times) was “marked anthelmintic effect”, the inhibition in vivo at 30 mg/kg [2, 15] was 100% and the inhibition in vivo at 50 mg/kg ([2]; chicken, 50 mg/Kg oral in gelatin capsule, chickens No.1-3) was 100%. The inhibition in vivo at 25 ppm [4, 16] was 100%, the inhibition in vivo at 50 ppm [4, 17] was 100% and the “Change of E.P.G. 21st day” value ([4]; chicken, 25 ppm in feed) was 0. For the same molecule, the “Change of E.P.G. 21st day” value ([4]; chicken, 50 ppm in feed) was 0, the “Change of E.P.G. 7th day” value ([10]; 20 mg/Kg oral in gelatin capsule) was 0 and the “Change of E.P.G. Before administration” value ([10]; before 20 mg/Kg oral (baseline)) was 2,200 and 1,400. The “anthelmintic effect” value ([10]; one administration of 20 mg/Kg) was “marked anthelmintic effect”, the “Change of E.P.G. 7th day” value [11, 13] was 0 and the “Change of E.P.G. Before administration” value [11, 14] was 4,500 and 6,600.
For `C=CCNOCC.Cl` [Compound D1, N-allyl-O-ethylhydroxylamine hydrochloride], the “Change of E.P.G. 7th day” value ([1]; pig, 20 mg/Kg, one administration) was 0, the “Change of E.P.G. Before administration” value ([1]; pig, before 20 mg/Kg (baseline), hydrochloride) was 6,600 and 4,200 and the inhibition in vivo at 15 mg/kg ([2]; chicken, 15 mg/Kg oral in gelatin capsule, chickens No.1-3) was 80 to 90%. For the same molecule, the inhibition in vivo at 30 mg/kg [2, 15] was 100%, the “Change of E.P.G. 7th day” value ([12]; Trichostrongylus colubriformis, 15 mg/Kg, one administration) was 0 and the “Change of E.P.G. Before administration” value ([12]; Trichostrongylus colubriformis, before 15 mg/Kg (baseline)) was 2,900. The “anthelmintic effect” value ([12]; one administration of 15 mg/Kg) was “marked anthelmintic effect”, the inhibition in vivo at 25 ppm [4, 16] was 80 to 90% and the inhibition in vivo at 50 ppm [4, 17] was 100%. The “Change of E.P.G. 7th day” value ([10]; 15 mg/Kg) was 0, the “Change of E.P.G. Before administration” value ([10]; before 15 mg/Kg (baseline), hydrochloride) was 3,700 and 5,400 and the “anthelmintic effect” value ([10]; one administration of 15 mg/Kg) was “marked anthelmintic effect”. For the same molecule, the “Change of E.P.G. 7th day” value ([6]; pig, Ascaris suum, 20 mg/Kg, one administration) was 0 and the “Change of E.P.G. Before administration” value ([6]; pig, Ascaris suum, before 20 mg/Kg (baseline), hydrochloride) was 2,700 and 3,100.
With `C#CCNOCC=C.Cl` [Compound D14, N-propargyl-O-allylhydroxylamine hydrochloride] the “Change of E.P.G. 7th day” value ([7]; 20 mg/Kg) was 0, the “Change of E.P.G. 7th day” value ([8]; dog, Trichuris vulpis, 20 mg/Kg) was 0 and the “anthelmintic effect” value ([8]; one administration of 20 mg/Kg) was “marked anthelmintic effect”. For the same molecule, the inhibition in vivo at 25 ppm [4, 16] was 80 to 90%, the inhibition in vivo at 50 ppm [4, 17] was 100% and the “Change of E.P.G. 7th day” value ([11]; 20 mg/Kg) was 0. For the same molecule, the “Change of E.P.G. Before administration” value ([11]; before 20 mg/Kg (baseline), hydrochloride) was 3,300 and 6,800, the “Condition of fluke bodies” value ([5]; rat, 50 mg/Kg x 5) was “dead” and the “Presence or absence of fluke egg in fecal matter On 21st day after the last administration” value ([5]; rat, 50 mg/Kg x 5) was “-”. For the same molecule, the “anthelmintic effect” value [5] was “marked anthelmintic effect”.
